# In patent publication US10092565B2, “Treatment of proliferative disorders with a chemiluminescent agent” (Semorex Technologies Ltd., priority 2011, dated 2018):
# Where two headings read alike, the source gives them in different places.
# Columns and labels:
# [1] = test system: CHRF line acute myeloid leukemia (AML) cells; assay: XTT growth inhibition of CHRF AML cells, 72 hours; assay type: cell-based; conditions: for Growth inhibition (%): 80 µM
# Method: Cells were grown in full culture medium for 24 hours. The medium was then removed and cells were washed with PBS. The PBS was then replaced by fresh medium containing different concentrations of SEM-011 in a range of 50 to 800 μM, or with SEM-011-free medium as a control. […] Growth inhibition was evaluated by calculating the percent decrease in absorbance in SEM-011-treated test cultures as compared to control cultures.
# [2] = for effect on decrease in body weight following inoculation with tumor cells: FIG. 5
# Excerpt: FIG. 5 is a bar graph showing the change in body weight of nu/nu mice 28 and 77 days after inoculation with PC-3 cells, following intraperitoneal injection of L-012 once per week (L012 l/w) or twice per week (L012 2/w) during days 35-56 after inoculation, and without L-012 administration (Control);
# Nu/nu mice were inoculated with PC-3 cells as described in Example 1, and on day 35 post-inoculation, the animals were divided into three groups.
# (§1) Control animals received an intraperitoneal injection of PBS.
# A second group received one weekly injection of 41.3 mg/kg L-012 for 3 weeks, i.e., on days 35, 42 and 49 post-inoculation. A third group received two weekly injections of 41.3 mg/kg L-012 for 3 weeks, i.e., on days 35, 36, 42, 47, 49 and 56.
# [3] = test system: PC-3 prostate cancer cells; assay: PC-3 prostate cancer tumors in nu/nu mice, tumor volume / Progression Index; assay type: in vivo
# Method: Tumor volumes were quantified (in cm^3) at the indicated times by using the formula: tumor volume=(width^2×length)/2. Tumor volume index or Progression Index refers to the ratio of a tumor volume at an indicated time to the first volume measured for that tumor.
# Nu/nu nude mice were inoculated on their right flank with 2×10^6 PC-3 prostate cancer cells in a Matrigel mixture. Following inoculation, two mice were treated with escalating concentrations of L-012 (also referred to herein as “SEM-007”) by intraperitoneal injections twice per week, according to the following schedule:
# As a control, two mice were inoculated with PC-3 cells without receiving L-012.
# The volume of the tumor was then monitored.
# The tumor volume was measured periodically beginning on day 25 post-inoculation, and the weight loss over the course of the experiment was also measured.
# Each treatment group and each control group consisted of four (and sometimes five) mice.
# In another set of experiments, Nu/nu male mice, 1.5-month old, were injected subcutaneously on the right flank with PC-3 cells (2.0×10^6 cells/mouse). On days 4, 8, 12, 15, 19, 36, 42 and […] (after the beginning of treatment), mice were treated with either vehicle (PBS) or 43 mg/Kg L012 by intraperitoneal injections. From the beginning of treatment, tumor dimensions were measured and tumor volume calculated. Progression Index was calculated as the ratio of tumor volume growth at a particular time point to the tumor volume at the initiation of treatment.
# as §1
# The tumor volume was measured periodically beginning on day 35 post-inoculation.
# Nu/nu male mice, 1.5-month old, were injected subcutaneously on the right flank with PC-3 cells (2.0×10^6 cells/mouse). On days 4, 8, 12, 15, 19, 36, 42 and 46 (after beginning of treatment), mice were treated with either vehicle (PBS) or 43 mg/Kg SEM 009, by intravenous injection, as indicated.
# From the beginning of treatment, tumor dimensions were measured and tumor volume calculated. Progression Index was calculated as the ratio of tumor volume rowth at a particular time point to the tumor volume at the initiation of treatment.
# PC-3 cells = assay: Alamar Blue growth inhibition of PC-3 cells; assay type: cell-based, human; conditions: for IC50: read-out: Est IC50
# Method: In additional sets of experiments. […] At the end of the culture period, the level of mitochondrial metabolism was measured (using Alamar Blue assay) and the activity of the chemiluminescent agents was determined by percents of growth inhibition; the inhibition of growth in treated cell cultures compared to non-treated, control cells.
# [4] = test system: OvCar-3 ovarian cancer cells, SKOV-3 ovarian cancer cells, HepG2 liver cancer cells, PC-3 prostate cancer cells, CHRF acute myeloid leukemia cells; assay: XTT growth inhibition IC50 in a panel of cancer cell lines, 72 hours; assay type: cell-based; conditions: all tested cell lines, FIG. 7
# Method: (§2) The compound SEM-011 was tested for anti-cancer activity, using the PC-3 prostate cancer cell line. Cells were grown in full culture medium for 24 hours. The medium was then removed and cells were washed with PBS. The PBS was then replaced by fresh medium containing different concentrations of SEM-011 in a range of 50 to 800 μM, or with SEM-011-free medium as a control. Cells were then cultured for 24 hours, after which time the level of cellular metabolism in the cultures was measured using a standard XTT (2,3-bis-(2-methoxy-4-nitro-5-sulfophenyl)-2H-tetrazolium-5-carboxanilide) assay. Growth inhibition was evaluated by calculating the percent decrease in absorbance in SEM-011-treated test cultures as compared to control cultures.
# (§3) The compounds SEM-007 (also referred to herein and in the art as “L-012”) and SEM-009 (also referred to in the art as “L-002”) were tested for anti-cancer activity using a variety of cell lines. The cell lines used were OvCar-3 ovarian cancer cells, SKOV-3 ovarian cancer cells, HepG2 liver cancer cells, PC-3 prostate cancer cells, and CHRF acute myeloid leukemia cells.
# [5] = as above; assay type: cell-based; conditions: span over all tested cell lines, FIG. 7, read-out: IC50 (concentration which resulted in 50% growth inhibition)
# Method: as §2, §3
# [6] = test system: PC-3 prostate cancer cell line; assay: XTT growth inhibition of PC-3 cells, 24 hours; assay type: cell-based, human
# Method: as §2
# [7] = Homo sapiens, PC-3, 200 uM, 24 hrs
# [8] = Homo sapiens, PC-3, 200 uM, 48 hrs
# [9] = Homo sapiens, PC-3, 400 uM, 24 hrs
# [10] = Homo sapiens, PC-3, 400 uM, 48 hrs
# [11] = Homo sapiens, PC-3, 800 uM, 24 hrs
# [12] = Homo sapiens, PC-3, 800 uM, 48 hrs
# [13] = Homo sapiens, PC-3, 200 uM, 72 hrs
# [14] = Homo sapiens, PC-3, 400 uM, 72 hrs
# [15] = Homo sapiens, PC-3, 800 uM, 72 hrs
compound,measurement,setting,value
C[n+]1c2ccccc2c(-c2c3ccccc3[n+](C)c3ccccc23)c2ccccc21 [Lucigenin],Growth inhibition (%),[1],33%
Nc1cccc2c(=O)[nH][nH]c(=O)c12 [Luminol],inhibition at 80 µM,"[1]; 72 h, read-out: Growth inhibition (%)",40%
"Nc1c(-c2ccccc2)nc(Cl)c2c(=O)[nH][nH]c(=O)c12 [SEM-007, L-012]",systemic toxicity or morbidity in tumor-bearing mice,[2]; 41.3 mg/kg once or twice per week,does not result in systemic toxicity or morbidity
same,effect on decrease in body weight following inoculation with tumor cells,[2]; 41.3 mg/kg once per week,partially inhibited the decrease in body weight
same,effect on decrease in body weight following inoculation with tumor cells,[2]; 41.3 mg/kg twice per week,completely reversed the decrease in body weight
same,reduction of tumor volume in comparison with the PBS-treated control,"[3]; 41.3 mg/kg intraperitoneal on days 25, 28, 32, 35, at day 65, FIG. 3A",54%
same,reduction of tumor volume in comparison with the PBS-treated control,"[3]; 41.3 mg/kg once per week for 3 weeks, at day 73, FIGS. 4A, 4B",45%
same,reduction of tumor volume in comparison with the PBS-treated control,"[3]; 41.3 mg/kg twice per week for 3 weeks, at day 73, FIGS. 4A, 4B",95%
same,Progression Index compared to non-treated mice,"[3]; 43 mg/Kg intraperitoneal, FIG. 3B",sharp increase in the Progression Index
same,average tumor volume progression after administration,"[3]; escalating L-012 41.3, 66.5, 100.4 mg/kg intraperitoneal on days 32, 39, 43, FIG. 2","halted tumor progression, with no increase in average tumor volume"
same,tumor volume reduction (summary of FIGS. 2-4B),"[3]; prostate cancer cells injected into mice, dose dependent",up to 95%
same,% growth inhibition,"PC-3 cells; 25 uM, 48 hrs",27%
same,% growth inhibition,"PC-3 cells; 25 uM, 73 hrs",11%
same,% growth inhibition,"PC-3 cells; 50 uM, 24 hrs",46.46%
same,% growth inhibition,"PC-3 cells; 50 uM, 48 hrs",31%
same,% growth inhibition,"PC-3 cells; 50 uM, 73 hrs",20%
same,% growth inhibition,"PC-3 cells; 100 uM, 24 hrs",65.25%
same,% growth inhibition,"PC-3 cells; 100 uM, 48 hrs",38%
same,% growth inhibition,"PC-3 cells; 100 uM, 73 hrs",38%
same,% growth inhibition,"PC-3 cells; 200 uM, 24 hrs",66.84%
same,% growth inhibition,"PC-3 cells; 200 uM, 48 hrs",58%
same,% growth inhibition,"PC-3 cells; 200 uM, 73 hrs",58.0%
same,% growth inhibition,"PC-3 cells; 400 uM, 24 hrs",77.73%
same,% growth inhibition,"PC-3 cells; 400 uM, 48 hrs",70%
same,% growth inhibition,"PC-3 cells; 400 uM, 73 hrs",76%
same,% growth inhibition,"PC-3 cells; 800 uM, 24 hrs",73.80%
same,% growth inhibition,"PC-3 cells; 800 uM, 48 hrs",78%
same,% growth inhibition,"PC-3 cells; 800 uM, 73 hrs",90%
same,IC50,PC-3 cells; 48 hrs,160 µM
same,IC50,PC-3 cells; 73 hrs,140 µM
"O=c1[nH][nH]c(=O)c2c(O)c(-c3ccccc3)ncc12 [SEM-009, 8-hydroxy-7-phenyl-2,3-dihydropyrido[4,3-d]pyridazine-1,4-dione]",IC50 compared with SEM-007,[4],lower than that of SEM-007 in all of the tested cell lines
same,IC50,[5],40 to 200 µM
same,Progression Index compared to non-treated mice,"[3]; 43 mg/Kg SEM 009 by intravenous injection, FIG. 9",sharp decrease in the Progression Index
same,inhibition at 50 µM,"PC-3 cells; Homo sapiens, PC-3, 50 uM, 24 hrs",-27.2%
same,inhibition at 50 µM,"PC-3 cells; Homo sapiens, PC-3, 50 uM, 48 hrs",26.6%
same,inhibition at 50 µM,"PC-3 cells; Homo sapiens, PC-3, 50 uM, 73 hrs",21.3%
same,inhibition at 100 µM,"PC-3 cells; Homo sapiens, PC-3, 100 uM, 24 hrs",81.4%
same,inhibition at 100 µM,"PC-3 cells; Homo sapiens, PC-3, 100 uM, 48 hrs",49.2%
same,inhibition at 100 µM,"PC-3 cells; Homo sapiens, PC-3, 100 uM, 73 hrs",47.8%
same,inhibition at 200 µM,PC-3 cells; [7],84.2%
same,inhibition at 200 µM,PC-3 cells; [8],80.3%
same,inhibition at 200 µM,"PC-3 cells; Homo sapiens, PC-3, 200 uM, 73 hrs",80.5%
same,inhibition at 400 µM,PC-3 cells; [9],90.6%
same,inhibition at 400 µM,PC-3 cells; [10],83.7%
same,inhibition at 400 µM,"PC-3 cells; Homo sapiens, PC-3, 400 uM, 73 hrs",85.6%
same,inhibition at 800 µM,PC-3 cells; [11],89.1%
same,inhibition at 800 µM,PC-3 cells; [12],85.7%
same,inhibition at 800 µM,"PC-3 cells; Homo sapiens, PC-3, 800 uM, 73 hrs",89%
same,IC50,"PC-3 cells; Homo sapiens, PC-3, 48 hrs",100 µM
same,IC50,"PC-3 cells; Homo sapiens, PC-3, 73 hrs",110 µM
"NNc1nc(-c2ccccc2)c(O)c2c(=O)[nH][nH]c(=O)c12 [SEM-011, 5-hydrazinyl-8-hydroxy-7-phenyl-2,3-dihydropyrido[4,3-d]pyridazine-1,4-dione]",inhibition at 50 µM,"[6]; Homo sapiens, PC-3, 50 μM",50%
same,inhibition at 100 µM,"[6]; Homo sapiens, PC-3, 100 μM",87%
same,inhibition at 200 µM,"[6]; Homo sapiens, PC-3, 200 μM",96%
same,inhibition at 400 µM,"[6]; Homo sapiens, PC-3, 400 μM",96%
same,inhibition at 800 µM,"[6]; Homo sapiens, PC-3, 800 μM",96%
same,PC-3 cell growth inhibition in words,[6]; concentrations of 200 μM or more,almost completely inhibited PC-3 cell growth
"O=c1[nH][nH]c(=O)c2c(O)c(-c3ccccc3Cl)ncc12 [SEM-013, 8-hydroxy-7-(2-chlorophenyl)-2,3-dihydropyrido[4,3-d]pyridazine-1,4-dione]",inhibition at 200 µM,PC-3 cells; [7],23.8%
same,inhibition at 200 µM,PC-3 cells; [8],22.3%
same,inhibition at 200 µM,PC-3 cells; [13],23.1%
same,inhibition at 400 µM,PC-3 cells; [9],30.1%
same,inhibition at 400 µM,PC-3 cells; [10],29.1%
same,inhibition at 400 µM,PC-3 cells; [14],41.7%
same,inhibition at 800 µM,PC-3 cells; [11],37.1%
same,inhibition at 800 µM,PC-3 cells; [12],55.5%
same,inhibition at 800 µM,PC-3 cells; [15],64.2%
"O=c1[nH][nH]c(=O)c2c(O)c(-c3ccc(Cl)cc3)ncc12 [SEM-014, 8-hydroxy-7-(4-chlorophenyl)-2,3-dihydropyrido[4,3-d]pyridazine-1,4-dione]",inhibition at 200 µM,PC-3 cells; [7],51.6%
same,inhibition at 200 µM,PC-3 cells; [8],71.9%
same,inhibition at 200 µM,PC-3 cells; [13],68.2%
same,inhibition at 400 µM,PC-3 cells; [9],55.7%
same,inhibition at 400 µM,PC-3 cells; [10],70.5%
same,inhibition at 400 µM,PC-3 cells; [14],72.7%
same,inhibition at 800 µM,PC-3 cells; [11],54.3%
same,inhibition at 800 µM,PC-3 cells; [12],71.3%
same,inhibition at 800 µM,PC-3 cells; [15],76.1%
MCLA,Growth inhibition (%),[1],85%
